Results taken from US11306313B2, “Peptide, complex of peptide and siRNA, and methods of use thereof” (Positec Power Tools (Suzhou) Co., Ltd, priority 2013, dated 2022).
Where a SMILES comes first, the peptide text is derived from it.

Key:
[1] = Cytotoxicity test (CCK8 cell viability); assay type: cell-based; conditions: CHO-K1 cells, FIG. 5, molar ratio 20/1 and 40/1, siRNA 50 nM, read-out: cell survival rate
Procedure: CHO-K1 cells were seeded at 5,000-8,000 cells/well in clear, flat-bottomed, 96-well plates in triplicate and grown for 24 h at 37° C. with 5% CO2. The complexes or control samples were added to the cells in 150 μl of standard media and the cells were incubated for 48 h. The CCK8 assay was used to determine cell viability, according to the manufacturer's instructions. Briefly, […] of CCK8 stock was added to each well and incubated for 2 h at 37° C. in 5% CO2. Then, the cultures were removed from the incubator and the absorbance at 570 nm was read on a plate reader (FLUOstar OPTIMA, BMG, Germany). The background absorbance of the multiwell plates at 690 nm was determined and subtracted from the 570 nm measurement. The results obtained from triplicate wells were averaged and normalized using the value obtained for non-treated cells.

[2] = Cell absorption test; assay type: cell-based
[3] = reported in WO2013/075244 A1; cited from earlier work
[4] = reported in WO2013/075244 A1; cited from earlier work; remark: listed apart in the source

CC(=O)NCC(=O)N[C@@H](CC(C)C)C(=O)N[C@@H](Cc1c[nH]c2ccccc12)C(=O)N[C@@H](Cc1c[nH]cn1)C(=O)N[C@@H](C)C(=O)N[C@@H](Cc1c[nH]c2ccccc12)C(=O)N[C@@H](CC(C)C)C(=O)N[C@@H](Cc1c[nH]c2ccccc12)C(=O)N[C@@H](Cc1c[nH]cn1)C(=O)N[C@@H](C)C(=O)N[C@@H](Cc1ccccc1)C(=O)N[C@@H](CC(C)C)C(=O)N[C@@H](C)C(=O)N[C@@H](CO)C(=O)N[C@@H](Cc1c[nH]cn1)C(=O)N[C@@H](CCCNC(=N)N)C(=O)N[C@@H](CC(C)C)C(=O)N[C@@H](CC(C)C)C(=O)N[C@@H](CCCNC(=N)N)C(=O)N[C@@H](CC(C)C)C(=O)N[C@@H](CC(C)C)C(=O)N[C@@H](CCCNC(=N)N)C(N)=O [GL5, CH3CONH-GLWHAWLWHAFLASHR LLRLLR-CONH2] (Ac-GLWHAWLWHAFLASHRLLRLLR-NH2)
viability at 48 h [1]: ~105%

CH3(CH2)16CONH-HHHHHHHHHHHHHHHHRRRRRRRR-CONH2 (stearyl-HHHHHHHHHHHHHHHHRRRRRRRR-NH2) [STR-HR]
absorption efficiency compared with lipid 2000 [2]: higher than that of lipid 2000

GLWRAWLWKAFLASNWRRLLRLLR (Synthetic sequence - peptide GL1)
siRNA delivery (uptake) efficiency [3]: about 95% | gene silencing efficiency [4]: about 50%
